From PubChem BioAssay (NCI)
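All cell lines were grown in 96-well plates and treated with compound for 48 hours. Here, GI50 denotes the concentration required for 50% inhibition of growth. TGI marks complete inhibition of growth.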

Tests used:
Experiment in all cases: growth of human tumour cells (NCI), 48 h
[1] = system: HOP-18 NSCLC
[2] = system: SNB-78 CNS
[3] = system: SK-OV-3 ovarian
[4] = system: DMS 114 small cell lung
[5] = system: XF 498 CNS
[6] = system: MDA-MB-231 breast
[7] = system: MDA-MB-435
[8] = system: HS 578T breast
[9] = system: T-47D breast
[10] = system: BT-549 breast

Row | SMILES | TGI [1] [µM] | TGI [2] [µM] | TGI [3] [µM] | TGI [4] [µM] | TGI [5] [µM] | other results
1 | CCOC(=O)C1=C(Nc2ccc(Br)cc2)OCC1=O | > 100 | > 100 | > 100 |  |  | 
2 | CCOC(=O)C(C)(c1c(C)[nH]c2ccccc12)c1c(C)[nH]c2ccccc12 |  | 49.2 | 52.9 | 41.6 | 39.4 | 
3 | CC1CCC(C(C)(C)c2ccccc2)C(=O)C1 (configuration not stated) | > 100 | > 100 | > 100 | > 100 | > 100 | 
4 | COc1ccc2nc3cc(Cl)ccc3c(Sc3ccc(NC(C)=O)cc3)c2c1 | > 53.7 | 62.1 | > 61.9 | 14.1 | > 25.2 | 
5 | COC(=O)c1c[nH]cc1CCCCc1c[nH]cc1C(=O)OC | > 100 | > 100 | > 100 |  | > 100 | 
6 | NC(=O)c1cn(Cc2ccccc2)c(=O)n1Cc1ccccc1 | > 100 | > 100 | > 100 |  | > 100 | 
7 | CC1COS(=O)O1 (configuration not stated) | > 100 | > 100 | > 100 | > 100 | > 100 | 
8 | CC(C)(C)OC(=O)N1C2CCCC23O[C@@H]1c1cc2c(cc1C3=O)OCO2 (some centres not stated) |  | > 100 | 94 | > 100 | > 100 | 
9 | O=C1C=CC(=CC=C2C=CN(CCCCCCCCCCC(=O)NCCCCCCCCCCCC(=O)O)C=C2)C=C1 |  | > 100 | > 100 | > 100 | > 100 | 
10 | CC12CCC(=O)N1c1cccnc1N2 (configuration not stated) |  | > 100 | > 100 | > 100 | > 100 | 
11 | COc1cc(/C=C/C(=O)Oc2ccccc2)ccc1C(=O)O/C=C/c1ccccc1 | > 100 | > 100 | > 100 | > 100 | > 100 | TGI [6]: > 100 µM; TGI [7]: > 100 µM; TGI [8]: > 100 µM; TGI [9]: > 100 µM; TGI [10]: > 100 µM
12 | O=C1c2ccccc2C(=O)N1C/C=N/NS(=O)(=O)c1ccc(Br)cc1 | > 100 | > 100 | > 100 | > 100 | > 100 | 
13 | CS(=O)(=O)CS(=O)(=O)OCCCl | 1380 | 420 | 423 | 339 |  | TGI [6]: 918 µM; TGI [7]: 2330 µM; TGI [8]: 1790 µM; TGI [9]: 1530 µM; TGI [10]: 181 µM
14 | Cc1ccc(C)c(N2C(=O)C(=O)C(c3nc4ccccc4o3)/C(=N/N)C2=O)c1 (configuration not stated) | > 100 | > 100 | > 100 | > 100 | > 100 | 
15 | NC(CCc1ncc(C(=O)O)s1)C(=O)O (configuration not stated) | > 100 | > 100 | > 100 | > 100 |  | 
16 | C1=NC(N(Cc2ccccc2)Cc2ccccc2)N(Cc2ccccc2)N1 (configuration not stated) | 45.7 | > 100 | 67.2 | 29.3 |  | 
17 | COc1cc(/C=N\O[Si](C)(C)C(C)(C)C)ccc1O[Si](C)(C)C(C)(C)C | > 100 | > 100 | > 100 | 83.4 | > 100 | 
18 | C=CCC1(C)CCCCC1(O)CS(=O)c1ccccc1 (configuration not stated) | > 100 | > 100 | > 100 | > 100 |  | 
19 | O=C1C2[C@@H](C(=O)N1c1ccc(Br)cc1)C13C(=CC2([N+](=O)[O-])[C@@H]2C(=O)N(c4ccc(Br)cc4)C(=O)[C@@H]21)c1ccccc1N3c1ccccc1 (some centres not stated) | > 100 | > 100 |  | > 100 | > 100 | 

Row | SMILES | TGI [1] [µM] | TGI [2] [µM] | TGI [3] [µM] | TGI [4] [µM] | TGI [5] [µM] | other results
20 | O=C1c2ccc3c4ccccc4n(-c4ccccc4)c3c2C(=O)N1c1ccc(Cl)cc1 |  | > 100 | > 100 | > 100 |  | 
21 | N#Cc1c(-c2ccco2)cc(-c2ccc(N)cc2)[nH]c1=O | > 100 |  | > 100 | > 100 |  | 
22 | CC(=O)OCCOCNC(=S)N/N=C/c1ccc([N+](=O)[O-])s1 | > 100 | > 100 | > 100 | 26.4 | > 100 | 
23 | Cc1c(Cl)cccc1NC(=O)c1cccc([N+](=O)[O-])c1O | > 28.9 | > 92.6 | > 80.2 | 48.7 | 38.8 | 
24 | CCC[CH2][Sn]1([CH2]CCC)[O]CC(COc2c(Cl)cc(Cl)cc2Cl)[O]1 (configuration not stated) | 2.71 | 3.49 | 12.3 | 1.58 |  | GI50 [1]: 1.41 µM; GI50 [2]: 0.962 µM; GI50 [4]: 0.403 µM; GI50 [3]: 4.18 µM
25 | COc1cc(-c2nnc3n2NC=C(C(=O)O)S3)cc(OC)c1OC | > 100 | > 100 | > 100 | > 70 | > 100 | 
26 | NC(=S)N/N=C1\CCCC\C1=C/c1ccccc1 | > 100 | > 100 | > 100 | > 100 |  | 
27 | Cc1ccc(C)c(N2C(=O)C(=O)C(c3nc4ccccc4o3)/C(=N\NC(=O)c3ccccc3O)C2=O)c1 (configuration not stated) | > 100 | > 100 | > 100 | 71.3 |  | 
28 | Cc1ccc2[c](c1)[Sn]([c]1ccccc1)([c]1ccccc1)[c]1cc(C)ccc1N2C | > 100 | > 100 | > 100 | > 100 | > 100 | GI50 [1]: > 100 µM; GI50 [2]: 46.2 µM; GI50 [4]: 28.7 µM; GI50 [3]: > 100 µM; GI50 [5]: 63.6 µM
29 | COc1cc2c(cc1OC)C1Cc3cc(OC)c(OC)cc3N1CC2 (configuration not stated) |  | > 100 | > 100 | 37.5 | 43.6 | 
30 | C[P+](C)(C)c1ccccc1 | > 100 |  | > 100 | > 100 | > 100 | 
31 | Cc1ccc(N2C(=O)N(c3ccc(C)cc3)C3(SC=NN3C)C2=O)cc1 (configuration not stated) | > 100 | > 100 | > 100 | > 100 |  | 
32 | C1COCCSC2=C(SCCO1)SC(=C1SC3=C(SCCOCCOCCS3)S1)S2 | > 100 | > 100 | > 100 | > 100 | 73.3 | 
33 | COc1ccc2c(c1)C(C)Cc1c(ncnc1-n1cnc3ccccc31)N2C (configuration not stated) |  |  | 16 |  |  | GI50 [6]: 1.04 µM; TGI [6]: 4.35 µM; GI50 [7]: 0.2 µM; TGI [7]: 0.605 µM; GI50 [8]: 0.535 µM; TGI [8]: 37.2 µM; GI50 [9]: 0.432 µM; TGI [9]: 64.6 µM; GI50 [10]: 0.47 µM; TGI [10]: 10.3 µM; GI50 [3]: 0.429 µM
34 | CCc1cccc(C)c1NC(=O)CC1C(=O)Nc2ccccc2S1=O (configuration not stated) |  | > 100 |  |  | > 100 | 
35 | O=C(N/N=C/c1ccc(O)cc1O)c1cccnc1 |  |  | > 100 |  |  | GI50 [6]: 3.68 µM; TGI [6]: > 100 µM; GI50 [7]: 7.52 µM; TGI [7]: > 100 µM; GI50 [8]: 7.26 µM; TGI [8]: 82.1 µM; GI50 [9]: 3.45 µM; TGI [9]: 86 µM; GI50 [10]: 7.06 µM; TGI [10]: 81.6 µM; GI50 [3]: 11.4 µM
36 | NCCCn1c2c(c3ccccc3c1=O)C(=O)c1ccccc1-2 |  |  | 1.94 |  |  | GI50 [6]: 0.177 µM; TGI [6]: 0.736 µM; GI50 [7]: 0.7 µM; TGI [7]: 3.07 µM; GI50 [8]: 0.556 µM; TGI [8]: 6.25 µM; GI50 [9]: 0.162 µM; TGI [9]: 0.951 µM; GI50 [10]: 1.47 µM; TGI [10]: 12.4 µM; GI50 [3]: 0.133 µM
37 | CSc1ccc2c(cc1=O)[C@@H](NC(=O)c1cc(O)c(O)c(O)c1)CCc1cc(O)c(O)c(O)c1-2 |  | 91.8 | > 100 |  | 39.4 | 
